In patent EP1135374B9, “BENZIMIDAZOLE COMPOUNDS THAT ARE VITRONECTIN RECEPTOR ANTAGONISTS” (SCHERING CORPORATION, priority 1998, dated 2000):

Tests used:
[1] = biological target: T1, αvβ3 receptor (purified from human placenta) (Homo sapiens, UniProt P05106+P06756); experiment: competition radioligand binding assay, 125I-echistatin to αvβ3 receptor; conditions: αvβ3, inhibition of specific 125I-echistatin binding
T1 construct: αvβ3 receptor (purified from human placenta); from tissue; host or cells: human placenta
Method: The following assay procedure, which is a competition radioligand binding assay, was carried out to determine the activity of the foregoing compounds as αvβ3 antagonists. The competitive assay procedure described in Kumar, et. al., "Biochemical Characterization Of The Binding Of Echistatin To Integrin αvβ3 Receptor", Journal Of Pharmacology And Experimental Therapeutics, Vol. 283, No. 2, pp. 843-853 (1997) was employed. Thus, binding of ^125I-echistatin (radiolabeled by the chloramine-T method to a specific activity of 2000 Ci/mmol (Amersham, Chicago, Il.)) to αvβ3 receptor (purified from human placenta), both prepared as described in Kumar, et al., was competed by the compounds prepared in the foregoing examples. Purified αvβ3 receptor was coated onto Microlite-2 plates at a concentration of 50 ng/well. ^125I-echistatin was added to the wells to a final concentration of 0.05 nM in binding buffer (50 µl/well) in the presence of the competing test compound. The competing test compounds were employed at serially diluted concentrations ranging from 1 pM to 100 nM. After a 3 hour incubation at room temperature, the wells were washed, and radioactivity, reflecting binding by ^125 I-echistatin to αvβ3 receptors, was determined with Top Count (Packard). Each data point is an average of values from triplicate wells.
Specific binding of ^125I-echistatin was calculated as the difference between the amount of ^125I-echistatin bound in the absence (total binding) and the amount of ^125I-echistatin bound in the presence of a 200-fold molar excess of unlabeled echistatin (nonspecific binding). The efficacy of the test compounds for inhibiting specific binding of ^125I-echistatin to αvβ3 receptors was determined by plotting a graph of specific binding (y-axis) as a function of test compound concentration (x-axis). The concentration of test compound required to inhibit 50% of the specific binding (IC50) was determined from the plot. The IC50 may be directly converted mathematically to Ki, which is a measure of the receptor binding affinity of the compounds under the defined assay conditions.

[2] = biological target: purified αllbβ3 receptor (Homo sapiens, UniProt P05106+P08514); experiment: similar competitive binding assay with 125I-echistatin on αllbβ3 receptor, used for the specificity index; conditions: specificity index IC50 αllbβ3/ IC50 αvβ3; for Specificity α11bβ3 / αvβ3: Table 13; for Specificity αIIβ3 / αvβ3: Table 14
Method: To measure the relative affinity of the test compounds for αvβ3 receptors versus affinity for αllbβ3 receptors, similar competitive assays were carried out using purified αllbβ3 receptor and ^125I-echistatin (iodinated using the lactoperoxidase method). The specificity index, which is a measure of the relative binding affinity for αvβ3, versus αllbβ3, may be determined by dividing the IC50 value for αllbβ3 by the IC50 value for αvβ3.

O=C(N[C@@H](CNC(=O)c1ccc(CN(Cc2nc3ccccc3[nH]2)C(=O)CCc2ccccc2)cc1)C(=O)O)OCc1ccccc1 [Example 5-16]
IC50 ([1]; Table 10): 4.4 nM
SPECIFICITY αIIbβ3 / αvβ3 ([2]; Table 10): 899

COCC(=O)N(Cc1ccc(C(=O)NC(CC(=O)O)c2ccccc2)cc1)Cc1nc2ccccc2[nH]1 (stereo not shown) [Example 5-67]
IC50 ([1]; Table 13): 7370 nM
Specificity α11bβ3 / αvβ3 [2]: 0.5

CCOC(=O)CCNC(=O)N(Cc1ccc(C(=O)NC[C@H](NC(=O)OCc2ccccc2)C(=O)O)cc1)Cc1nc2ccccc2[nH]1 [Example 5-54]
IC50 ([1]; Table 10): 2 nM
SPECIFICITY αIIbβ3 / αvβ3 ([2]; Table 10): 413

COc1ccc(OC(=O)N(Cc2ccc(C(=O)NC[C@H](NC(=O)OCc3ccccc3)C(=O)O)cc2)Cc2nc3ccccc3[nH]2)cc1 [Example 5-21]
IC50 ([1]; Table 10): 4.4 nM
SPECIFICITY αIIbβ3 / αvβ3 ([2]; Table 10): 41

CCCCOC(=O)N[C@@H](CNC(=O)c1ccc(CN(Cc2nc3ccccc3[nH]2)C(=O)N[C@@H](CCSC)C(=O)OCC)cc1)C(=O)O [Example 5-87]
IC50 ([1]; Table 16): 2 nM
Specificity αllbβ3 / αvβ3 ([2]; Table 16): 1569

CC(=O)N(Cc1ccc(C(=O)NC[C@H](NC(=O)OC(C)(C)C)C(=O)O)cc1)Cc1nc2ccccc2[nH]1 [Example 5-61]
IC50 ([1]; Table 12): 17 nM
Specificity αllbβ3 / αvβ3 ([2]; Table 12): 324

CC(=O)N(Cc1ccc(C(=O)NC(CC(=O)O)c2ccccc2)cc1)Cc1nc2ccccc2[nH]1 (stereo not shown) [Example 5-66]
IC50 ([1]; Table 13): 9470 nM
Specificity α11bβ3 / αvβ3 [2]: 0.4

CCOCC(=O)N(Cc1ccc(C(=O)NC[C@H](NC(=O)OCc2ccccc2)C(=O)O)cc1)Cc1nc2ccccc2[nH]1 [Example 5-26]
IC50 ([1]; Table 10): 3.5 nM
SPECIFICITY αIIbβ3 / αvβ3 ([2]; Table 10): 91

CC(C)(C)NC(=O)N(Cc1ccc(C(=O)NC[C@H](NC(=O)OCc2ccccc2)C(=O)O)cc1)Cc1nc2ccccc2[nH]1 [Example 5-34]
IC50 ([1]; Table 10): 2.3 nM
SPECIFICITY αIIbβ3 / αvβ3 ([2]; Table 10): 421

CC(=O)N(CCc1nc2ccccc2[nH]1)Cc1ccc(C(=O)NCC(NC(=O)OCc2ccccc2)C(=O)O)cc1 (stereo not shown) [Example 5-71]
IC50 ([1]; Table 14): 266 nM
Specificity αIIβ3 / αvβ3 [2]: 0.3

COCC(=O)N(Cc1ccc(C(=O)NC[C@H](NS(=O)(=O)c2ccccc2)C(=O)O)cc1)Cc1nc2ccccc2[nH]1 [Example 5-80]
IC50 ([1]; Table 16): 4.4 nM
Specificity αllbβ3 / αvβ3 ([2]; Table 16): 11

O=C(N[C@H](CNC(=O)c1ccc(CN(Cc2nc3ccccc3[nH]2)C(=O)CCc2ccccc2)cc1)C(=O)O)OCc1ccccc1 [Example 5-59]
IC50 ([1]; Table 11): 129 nM
Specificity αllbβ3 / αvβ3 ([2]; Table 11): 65

CCCCOC(=O)N[C@@H](CNC(=O)c1ccc(CN(Cc2nc3ccccc3[nH]2)C(=O)N[C@@H](C)C(=O)OCC)cc1)C(=O)O [Example 5-89]
IC50 ([1]; Table 16): 3.3 nM
Specificity αllbβ3 / αvβ3 ([2]; Table 16): 1094

CCOC(=O)CCC(=O)N(Cc1ccc(C(=O)NC[C@H](NC(=O)OCc2ccccc2)C(=O)O)cc1)Cc1nc2ccccc2[nH]1 [Example 5-17]
IC50 ([1]; Table 10): 4.6 nM
SPECIFICITY αIIbβ3 / αvβ3 ([2]; Table 10): 76

O=C(N[C@@H](CNC(=O)c1ccc(CN(Cc2nc3ccccc3[nH]2)C(=O)NS(=O)(=O)c2ccc(Cl)cc2)cc1)C(=O)O)OCc1ccccc1 [Example 5-44]
IC50 ([1]; Table 10): 19.6 nM
SPECIFICITY αIIbβ3 / αvβ3 ([2]; Table 10): 66.3

CC(C)(C)OC(=O)N[C@@H](CNC(=O)c1ccc(CN(Cc2nc3ccccc3[nH]2)C(=O)CCC2CCCC2)cc1)C(=O)O [Example 5-64]
IC50 ([1]; Table 12): 16 nM
Specificity αllbβ3 / αvβ3 ([2]; Table 12): 499

CCCNC(=O)N(Cc1ccc(C(=O)NC[C@H](NC(=O)OCc2ccccc2)C(=O)O)cc1)Cc1nc2ccccc2[nH]1 [Example 5-39]
IC50 ([1]; Table 10): 3.1 nM
SPECIFICITY αIIbβ3 / αvβ3 ([2]; Table 10): 223

CCNC(=O)N(Cc1ccc(C(=O)NC[C@H](NC(=O)OCc2ccccc2)C(=O)O)cc1)Cc1nc2ccccc2[nH]1 [Example 5-43]
IC50 ([1]; Table 10): 2.2 nM
SPECIFICITY αIIbβ3 / αvβ3 ([2]; Table 10): 585

CCCCOC(=O)N[C@@H](CNC(=O)c1ccc(CN(Cc2nc3ccccc3[nH]2)C(=O)Nc2ccc(F)cc2)cc1)C(=O)O [Example 5-88]
IC50 ([1]; Table 16): 2 nM
Specificity αllbβ3 / αvβ3 ([2]; Table 16): 1657

CCCCOC(=O)N[C@@H](CNC(=O)c1ccc(CN(Cc2nc3ccccc3[nH]2)C(=O)NC(C)C)cc1)C(=O)O [Example 5-84]
IC50 ([1]; Table 16): 3.6 nM
Specificity αllbβ3 / αvβ3 ([2]; Table 16): 712

O=C(N[C@@H](CNC(=O)c1ccc(CN(Cc2nc3ccccc3[nH]2)C(=O)NC23CC4CC(CC(C4)C2)C3)cc1)C(=O)O)OCc1ccccc1 [Example 5-40]
IC50 ([1]; Table 10): 5.7 nM
SPECIFICITY αIIbβ3 / αvβ3 ([2]; Table 10): 288

CCCCOC(=O)N[C@@H](CNC(=O)c1ccc(CN(Cc2nc3ccccc3[nH]2)C(=O)Nc2ccc(C(=O)OCC)cc2)cc1)C(=O)O [Example 5-91]
IC50 ([1]; Table 16): 2.8 nM
Specificity αllbβ3 / αvβ3 ([2]; Table 16): 1183

O=C(N[C@@H](CNC(=O)c1ccc(CN(Cc2nc3ccccc3[nH]2)C(=O)Nc2cccc3ccccc23)cc1)C(=O)O)OCc1ccccc1 [Example 5-37]
IC50 ([1]; Table 10): 5.3 nM
SPECIFICITY αIIbβ3 / αvβ3 ([2]; Table 10): 203

O=C(N[C@@H](CNC(=O)c1ccc(CN(Cc2nc3ccccc3[nH]2)C(=O)Nc2ccc(F)cc2)cc1)C(=O)O)OCc1ccccc1 [Example 5-49]
IC50 ([1]; Table 10): 4.2 nM
SPECIFICITY αIIbβ3 / αvβ3 ([2]; Table 10): 504

CC(c1nc2ccccc2[nH]1)N(Cc1ccc(C(=O)NC[C@H](NC(=O)OCc2ccccc2)C(=O)O)cc1)C(=O)CCC1CCCC1 (stereo partly shown) [Example 5-79]
IC50 ([1]; Table 15): 33 nM
SPECIFICITY αIIbβ3 / αvβ3 ([2]; Table 15): 19.0

Cn1c(CN(Cc2ccc(C(=O)NC[C@H](NC(=O)OCc3ccccc3)C(=O)O)cc2)C(=O)NC2CCCCC2)nc2ccccc21 [Example 5-92]
IC50 ([1]; Table 16): 7.6 nM
Specificity αllbβ3 / αvβ3 ([2]; Table 16): 174

O=C(NC(CNC(=O)c1ccc(CN(CCc2nc3ccccc3[nH]2)C(=O)CCC2CCCC2)cc1)C(=O)O)OCc1ccccc1 (stereo not shown) [Example 5-74]
IC50 ([1]; Table 14): 238 nM
Specificity αIIβ3 / αvβ3 [2]: 0.6

CN(Cc1ccc(C(=O)NC[C@H](NC(=O)OCc2ccccc2)C(=O)O)cc1)Cc1nc2ccccc2[nH]1 [Example 5-33]
IC50 ([1]; Table 10): 17 nM
SPECIFICITY αIIbβ3 / αvβ3 ([2]; Table 10): 128

CC(C)NC(=O)N(Cc1ccc(C(=O)NC[C@H](NC(=O)OCc2ccccc2)C(=O)O)cc1)Cc1nc2ccccc2n1C [Example 5-93]
IC50 ([1]; Table 16): 6.7 nM
Specificity αllbβ3 / αvβ3 ([2]; Table 16): 124

CCOC(=O)[C@@H](NC(=O)N(Cc1ccc(C(=O)NC[C@H](NC(=O)OCc2ccccc2)C(=O)O)cc1)Cc1nc2ccccc2[nH]1)C(C)C [Example 5-51]
IC50 ([1]; Table 10): 1.1 nM
SPECIFICITY αIIbβ3 / αvβ3 ([2]; Table 10): 1210

CCCCOC(=O)N[C@@H](CNC(=O)c1ccc(CN(Cc2nc3ccccc3[nH]2)C(=O)NC(C)(C)C)cc1)C(=O)O [Example 5-85]
IC50 ([1]; Table 16): 1.8 nM
Specificity αllbβ3 / αvβ3 ([2]; Table 16): 1223

CCOC(=O)[C@H](Cc1ccccc1)NC(=O)N(Cc1ccc(C(=O)NC[C@H](NC(=O)OCc2ccccc2)C(=O)O)cc1)Cc1nc2ccccc2[nH]1 [Example 5-52]
IC50 ([1]; Table 10): 4 nM
SPECIFICITY αIIbβ3 / αvβ3 ([2]; Table 10): 448

O=C(O)CC(NC(=O)c1ccc(CN(Cc2nc3ccccc3[nH]2)C(=O)CCC2CCCC2)cc1)c1ccccc1 (stereo not shown) [Example 5-69]
IC50 ([1]; Table 13): 10500 nM
Specificity α11bβ3 / αvβ3 [2]: 0.4

CSCC(=O)N(Cc1ccc(C(=O)NC[C@H](NC(=O)OCc2ccccc2)C(=O)O)cc1)Cc1nc2ccccc2[nH]1 [Example 5-23]
IC50 ([1]; Table 10): 5.5 nM
SPECIFICITY αIIbβ3 / αvβ3 ([2]; Table 10): 22

CC(=O)N(Cc1ccc(C(=O)NC[C@H](NC(=O)OCc2ccccc2)C(=O)O)cc1)C(C)c1nc2ccccc2[nH]1 (stereo partly shown) [Example 5-76]
IC50 ([1]; Table 15): 50 nM
SPECIFICITY αIIbβ3 / αvβ3 ([2]; Table 15): 6.7

O=C(N[C@@H](CNC(=O)c1ccc(CN(Cc2nc3ccccc3[nH]2)C(=S)NCCc2ccccc2)cc1)C(=O)O)OCc1ccccc1 [Example 5-31]
IC50 ([1]; Table 10): 6 nM
SPECIFICITY αIIbβ3 / αvβ3 ([2]; Table 10): 80

CCOc1ccc(NC(=O)N(Cc2ccc(C(=O)NC[C@H](NC(=O)OCc3ccccc3)C(=O)O)cc2)Cc2nc3ccccc3[nH]2)cc1 [Example 5-32]
IC50 ([1]; Table 10): 6.5 nM
SPECIFICITY αIIbβ3 / αvβ3 ([2]; Table 10): 151

CC(C)NC(=O)N(Cc1ccc(C(=O)NC[C@H](NC(=O)OCc2ccccc2)C(=O)O)cc1)Cc1nc2cc(Cl)ccc2[nH]1 [Example 5-95]
IC50 ([1]; Table 16): 1.7 nM
Specificity αllbβ3 / αvβ3 ([2]; Table 16): 775
